Patent publication US20240109881A1, “Heteroaryl Compounds as Ligand Directed Degraders of IRAK4” (Bristol-Myers Squibb Company, priority 2022, published 2024)

Columns and labels:
IRAK4 [1] = target: T1, IRAK4 (Homo sapiens, UniProt Q9NWZ3); assay: LVL THP1 HTRF (THP1 Homogeneous Time Resolved Fluorescence); assay type: cell-based; details: THP1 cells, 18 h incubation with compound; for DC50: read-out: LVL THP1 HTRF EC50
T1 construct: endogenous in cells; host or cells: THP-1 cells
T1 sequence (Q9NWZ3 1-460): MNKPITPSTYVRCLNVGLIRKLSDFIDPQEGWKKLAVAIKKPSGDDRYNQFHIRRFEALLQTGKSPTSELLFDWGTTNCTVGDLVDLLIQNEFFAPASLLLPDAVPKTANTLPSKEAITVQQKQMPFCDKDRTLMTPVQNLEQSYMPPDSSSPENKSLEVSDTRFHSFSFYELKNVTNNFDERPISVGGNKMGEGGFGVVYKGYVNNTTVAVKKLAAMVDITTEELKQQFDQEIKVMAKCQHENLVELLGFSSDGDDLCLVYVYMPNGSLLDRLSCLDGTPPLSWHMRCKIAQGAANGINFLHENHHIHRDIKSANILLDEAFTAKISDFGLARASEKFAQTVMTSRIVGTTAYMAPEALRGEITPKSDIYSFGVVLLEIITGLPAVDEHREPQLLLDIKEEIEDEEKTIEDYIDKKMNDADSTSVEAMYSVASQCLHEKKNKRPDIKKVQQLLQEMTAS
Method in brief: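 IRAK4 HTRF read-out (665/615 nm ratio, anti-IRAK4 d2 acceptor and K donor, 18 h dark incubation at room temperature) on lysates of THP-1 cells. Cells were treated 18 h at 37° C. with 20 nL compound in DMSO, in colorless RPMI with 10% FBS, with a duplicate CTG plate.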

IRAK4 [2] = target: T1, IRAK4; assay: ALE THP1 HTRF (Advanced Lipoxidation End Product THP1 Homogeneous Time Resolved Fluorescence); assay type: cell-based; details: THP1 cells
Method in brief: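 HTRF read-out of IRAK4 protein: anti-IRAK4 d2 and cryptate antibody pair added to BCA-normalized lysates, overnight dark room-temperature incubation. Lysis ran 45 min with shaking at room temperature; buffer, cryptate-only and negative controls included.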

Row | Compound | LVL THP1 HTRF YMIN (IRAK4 [1]) | DC50 (IRAK4 [1]) | ALE THP1 HTRF YMIN (IRAK4 [2]) | EC50 (IRAK4 [2])
1 | C[C@H](C#N)Nc1cc(-n2ncc3cc(C#N)cnc32)ncc1C(=O)N[C@H]1CC[C@H](CCN2CCN(c3ccc(C4CCC(=O)NC4=O)cc3)C3(CCC3)C2)CC1 (stereo partly shown) [P-182] | 6.3% | 415 nM | 9.4% | 5 nM
2 | C[C@H](C#N)Nc1cc(-n2ncc3cc(C#N)c(N)nc32)ncc1C(=O)N[C@H]1CC[C@H](CCN2CCN(c3ccc(C4CCC(=O)NC4=O)cn3)[C@H](C)C2)CC1 (stereo partly shown) [P-166] | <0.5% | 21 nM | 8.1% | 8 nM
3 | COc1cc(N2CCN(CC[C@H]3CC[C@H](NC(=O)c4cnc(-n5ncc6cc(C#N)c(N)nc65)cc4N[C@H](C)C#N)CC3)C[C@H]2C)ccc1C1CCC(=O)NC1=O (stereo partly shown) [P-161] | <0.5% | 12 nM | 6.6% | 6 nM
4 | C[C@H](C#N)Nc1cc(-n2ncc3cc(C#N)c(N)nc32)ncc1C(=O)N[C@H]1CC[C@H](CCN2CCN(c3ccc(C4CCC(=O)NC4=O)cc3F)[C@H](C)C2)CC1 (stereo partly shown) [P-165] | <0.5% | 6 nM | 5.4% | 2 nM
5 | C[C@H](C#N)Nc1cc(-n2ncc3cc(C#N)cnc32)ncc1C(=O)N[C@H]1CC[C@H](CCN2C[C@H]3C[C@@H](C2)N3c2ccc(C3CCC(=O)NC3=O)cc2)CC1 (stereo partly shown) [P-180] | 18.9% | 702 nM | 7.5% | 6 nM
6 | C[C@H](C#N)Nc1cc(-n2ncc3cc(C#N)cnc32)ncc1C(=O)N[C@H]1CC[C@H](CCN2[C@@H]3C[C@H]2CN(c2ccc(C4CCC(=O)NC4=O)cc2)C3)CC1 (stereo partly shown) [P-183] | <0.5% | 12 nM | 27.9% | 63 nM
7 | C[C@H](C#N)Nc1cc(-n2ncc3cc(C#N)c(N)nc32)ncc1C(=O)N[C@H]1CC[C@H](CCN2CCN(c3ccc(C4CCC(=O)NC4=O)cc3)C(C(F)(F)F)C2)CC1 (stereo partly shown) [P-186] | 5.7% | 29 nM | 13.9% | 34 nM
8 | C[C@H](C#N)Nc1cc(-n2ncc3cc(C#N)c(N)nc32)ncc1C(=O)N[C@H]1CC[C@H](CCN2CCN(c3ccc(C4CCC(=O)NC4=O)cc3)[C@@H](C)C2)CC1 (stereo partly shown) [P-178] | 0.8% | 1 nM | 7.5% | 12 nM
9 | CS(=O)(=O)N1CCC(Nc2cc(-n3ncc4cc(C#N)cnc43)ncc2-n2cc([C@H]3CC[C@H](CCN4CCN(c5ccc(C6CCC(=O)NC6=O)cc5)CC4)CC3)nn2)CC1 (stereo partly shown) [P-174] | 2.7% | 14 nM | 31.2% | 201 nM
10 | COc1cc(C2CCC(=O)NC2=O)ccc1N1CCN(CC[C@H]2CC[C@H](NC(=O)c3cnc(-n4ncc5cc(C#N)c(N)nc54)cc3N[C@H](C)C#N)CC2)C[C@H]1C (stereo partly shown) [P-167] | <0.5% | 5 nM | 5.9% | 2 nM
11 | N#Cc1cnc2c(cnn2-c2cc(NC3CCCC3)c(-n3cc(C4CCC(NC(=O)C5CCN(c6ccc7c(c6)C(=O)N(C6CCC(=O)NC6=O)C7)CC5)CC4)nn3)cn2)c1 (stereo not shown) [P-33] | – | – | 15.9% | 8 nM
12 | C[C@H]1CN(c2ccc(C3CCC(=O)NC3=O)cc2)CCN1CCC1CCC(NC(=O)c2cnc(-n3ncc4cc(C#N)cnc43)cc2NC2CCCC2)CC1 (stereo partly shown) [P-62] | – | – | 6.6% | 70 nM
13 | N#Cc1cnc2c(cnn2-c2cc(NC3CCCC3)c(-c3cn([C@H]4CC[C@H](CN5CCC(C(=O)Nc6ccc(C7CCC(=O)NC7=O)cc6)CC5)CC4)nn3)cn2)c1 (stereo partly shown) [P-47] | – | – | 14.1% | 110 nM
14 | N#Cc1cnc2c(cnn2-c2cc(NC3CCCC3)c(C(=O)NC3CCC(CC(=O)N4CCN(c5ccc(C6CCC(=O)NC6=O)cc5)CC4)CC3)cn2)c1 (stereo not shown) [P-23] | – | – | 34.8% | 20 nM
15 | N#Cc1cnc2c(cnn2-c2cc(NC3CCCC3)c(C(=O)N[C@H]3CC[C@H](CN4CCN(c5ccc6c(c5)C(=O)N(C5CCC(=O)NC5=O)C6=O)CC4)CC3)cn2)c1 (stereo partly shown) [P-18] | – | – | 36.9% | 37 nM
16 | CC(C)(C#N)Nc1cc(-n2ncc3cc(C#N)cnc32)ncc1C(=O)N[C@H]1CC[C@H](CCN2CCN(c3ccc(C4CCC(=O)NC4=O)cc3)CC2)CC1 (stereo partly shown) [P-115] | – | – | 38.9% | > 5000 nM

Row | Compound | LVL THP1 HTRF YMIN (IRAK4 [1]) | DC50 (IRAK4 [1]) | ALE THP1 HTRF YMIN (IRAK4 [2]) | EC50 (IRAK4 [2])
17 | N#Cc1cnc2c(cnn2-c2cc(NC3CCCC3)c(C(=O)NC3CCC(CN4CCC(C(=O)Nc5ccc(C6CCC(=O)NC6=O)cc5)CC4)CC3)cn2)c1 (stereo not shown) [P-31] | – | – | 18.2% | 60 nM
18 | N#Cc1cnc2c(cnn2-c2cc(NC3CCCC3)c(C(=O)NC3CCC(CN4CCC(C(=O)Nc5ccc(C6CCC(=O)NC6=O)cc5)C(F)(F)C4)CC3)cn2)c1 (stereo not shown) [P-46] | – | – | 31.5% | 74 nM
19 | N#Cc1cnc2c(cnn2-c2cc(NC3CC3)c(C(=O)NC3CCC(CCN4CCN(c5ccc(C6CCC(=O)NC6=O)c(Cl)c5)CC4)CC3)cn2)c1 (stereo not shown) [P-84] | – | – | 9.7% | 35 nM
20 | CC(C)Nc1cc(-n2ncc3cc(C#N)cnc32)ncc1C(=O)NC1CCC(CCN2CCN(c3ccc(C4CCC(=O)NC4=O)cc3)CC2)CC1 (stereo not shown) [P-50] | – | – | 7.5% | 11 nM
21 | C[C@@H]1CN(c2ccc(C3CCC(=O)NC3=O)cc2)CCN1CCC1CCC(NC(=O)c2cnc(-n3ncc4cc(C#N)cnc43)cc2NC2CCCC2)CC1 (stereo partly shown) [P-59] | – | – | 8.5% | 107 nM
22 | N#Cc1cnn2c(-c3cc(NC4CC4)c(C(=O)N[C@H]4CC[C@H](CCN5CCN(c6ccc(C7CCC(=O)NC7=O)cc6)CC5)CC4)cn3)cnc2c1 (stereo partly shown) [P-123] | – | – | 24.4% | 62 nM
23 | CN(CC1CCC(NC(=O)c2cnc(-n3ncc4cc(C#N)cnc43)cc2NC2CCCC2)CC1)C1CCN(c2ccc(C3CCC(=O)NC3=O)cc2)CC1 (stereo not shown) [P-60] | – | – | 11.3% | 945 nM
24 | N#Cc1cnc2c(cnn2-c2cc(NC3CC3)c(C(=O)N[C@H]3CC[C@H](CN4CCC5(CCN(c6ccc7c(c6)CN(C6CCC(=O)NC6=O)C7=O)CC5)C4)CC3)cn2)c1 (stereo partly shown) [P-130] | – | – | 20.0% | 15 nM
25 | CC(C)(C[C@H]1CC[C@H](NC(=O)c2cnc(-n3ncc4cc(C#N)cnc43)cc2NC2CCCC2)CC1)N1CCN(c2ccc(C3CCC(=O)NC3=O)cc2)CC1 (stereo partly shown) [P-81, 6-(5-cyano-1H-pyrazolo[3,4-b]pyridin-1-yl)-4-(cyclopentylamino)-N-((1r,4r)-4-(2-(4-(4-(2,6-dioxopiperidin-3-yl)phenyl)piperazin-1-yl)-2-methylpropyl)cyclohexyl)nicotinamide] | – | – | 10.7% | 73 nM
26 | CC(Nc1cc(-n2ncc3cc(C#N)cnc32)ncc1C(=O)NC1CCC(CCN2CCN(c3ccc(C4CCC(=O)NC4=O)cc3)CC2)CC1)C(F)(F)F (stereo not shown) [P-77] | – | – | 11.3% | 28 nM
27 | C[C@@H]1CN(c2ccc(C3CCC(=O)NC3=O)cc2)C[C@H](C)N1CCC1CCC(NC(=O)c2cnc(-n3ncc4cc(C#N)cnc43)cc2NC2CCCC2)CC1 (stereo partly shown) [P-57] | – | – | 9.7% | 194 nM
28 | N#Cc1cnc2c(cnn2-c2cc(NC3CC(F)(F)C3)c(C(=O)NC3CCC(CCN4CCN(c5ccc(C6CCC(=O)NC6=O)cc5)CC4)CC3)cn2)c1 (stereo not shown) [P-97] | – | – | 15.1% | 88 nM
29 | O=C1CCC(N2C(=O)c3ccc(N4CCC(C(=O)NC5CCC(n6cc(-c7cnc(Nc8ccc9ncsc9c8)cc7NC7CCCC7)nn6)CC5)CC4)cc3C2=O)C(=O)N1 (stereo not shown) [P-5] | – | – | 17.1% | 54 nM
30 | N#Cc1cnc2c(cnn2-c2cc(NC3CC3)c(C(=O)N[C@H]3CC[C@H](OCC4CCN(c5ccc(C6CCC(=O)NC6=O)cc5)CC4)CC3)cn2)c1 (stereo partly shown) [P-88] | – | – | 64.5% | 49 nM
31 | N#Cc1cnc2c(cnn2-c2cc(NC3CCC(C(N)=O)CC3)c(C(=O)N[C@H]3CC[C@H](CCN4CCN(c5ccc(C6CCC(=O)NC6=O)cc5)CC4)CC3)cn2)c1 (stereo partly shown) [P-137] | – | – | 7.7% | 18 nM
